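96-well plates; 48 h exposure; 5 concentrations. Endpoints by linear interpolation between flanking doses. Not reached: highest tested concentration assigned. GI50: concentration for 50% inhibition of growth. TGI: total growth inhibition.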
What was measured:
Assay in all cases: NCI anticancer screen, dose series, 48 h
TK-10 renal = tested on: TK-10 renal
786-0 renal = tested on: 786-0 renal
MDA-MB-231 breast = tested on: MDA-MB-231 breast
SF-295 CNS = tested on: SF-295 CNS
UO-31 renal = tested on: UO-31 renal
KM12 colon = tested on: KM12 colon
T-47D breast = tested on: T-47D breast
U251 CNS = tested on: U251 CNS
IGROV1 ovarian = tested on: IGROV1 ovarian
BT-549 breast = tested on: BT-549 breast
CCRF-CEM leukemia = tested on: CCRF-CEM leukemia
HL-60(TB) leukemia = tested on: HL-60(TB) leukemia
SF-539 CNS = tested on: SF-539 CNS
UACC-62 melanoma = tested on: UACC-62 melanoma
M14 melanoma = tested on: M14 melanoma
ACHN renal = tested on: ACHN renal
A498 renal = tested on: A498 renal
PC-3 prostate = tested on: PC-3 prostate
HCT-15 colon = tested on: HCT-15 colon
RXF 393 renal = tested on: RXF 393 renal
NCI-H460 lung = tested on: NCI-H460 lung
RPMI-8226 leukemia = tested on: RPMI-8226 leukemia
DU-145 prostate = tested on: DU-145 prostate
SN12C renal = tested on: SN12C renal
OVCAR-4 ovarian = tested on: OVCAR-4 ovarian
SK-MEL-2 melanoma = tested on: SK-MEL-2 melanoma
SK-OV-3 ovarian = tested on: SK-OV-3 ovarian
SK-MEL-28 melanoma = tested on: SK-MEL-28 melanoma
SNB-19 CNS = tested on: SNB-19 CNS
NCI-H522 lung = tested on: NCI-H522 lung
SNB-75 CNS = tested on: SNB-75 CNS
SF-268 CNS = tested on: SF-268 CNS
NCI-H23 lung = tested on: NCI-H23 lung
CAKI-1 renal = tested on: CAKI-1 renal
MALME-3M melanoma = tested on: MALME-3M melanoma
MDA-MB-435 = tested on: MDA-MB-435
OVCAR-3 ovarian = tested on: OVCAR-3 ovarian
K-562 leukemia = tested on: K-562 leukemia
HOP-62 NSCLC = tested on: HOP-62 NSCLC
OVCAR-5 ovarian = tested on: OVCAR-5 ovarian
SK-MEL-5 melanoma = tested on: SK-MEL-5 melanoma
HCT-116 colon = tested on: HCT-116 colon
OVCAR-8 ovarian = tested on: OVCAR-8 ovarian
UACC-257 melanoma = tested on: UACC-257 melanoma
HT29 colon = tested on: HT29 colon
HS 578T breast = tested on: HS 578T breast
COLO 205 colon = tested on: COLO 205 colon
SW-620 colon = tested on: SW-620 colon
SR leukemia = tested on: SR leukemia
NCI-H226 lung = tested on: NCI-H226 lung
A549 NSCLC = tested on: A549 NSCLC
HOP-92 NSCLC = tested on: HOP-92 NSCLC
MOLT-4 leukemia = tested on: MOLT-4 leukemia
MCF7 breast = tested on: MCF7 breast
NCI/ADR-RES ovarian = tested on: NCI/ADR-RES ovarian
HCC-2998 colon = tested on: HCC-2998 colon

## Oc1ccccc1/C=N/Nc1ccc2ccccc2n1
TK-10 renal
  GI50: 7.69 µM
  TGI: 77.5 µM
786-0 renal
  GI50: 5.81 µM
  TGI: > 100 µM
MDA-MB-231 breast
  GI50: 3.35 µM
  TGI: > 100 µM
SF-295 CNS
  GI50: 4.44 µM
  TGI: > 100 µM
UO-31 renal
  GI50: 1.17 µM
  TGI: 35.6 µM
KM12 colon
  GI50: 3.24 µM
  TGI: > 100 µM
T-47D breast
  GI50: 3.83 µM
  TGI: > 100 µM
U251 CNS
  GI50: 4.23 µM
  TGI: 31.5 µM
IGROV1 ovarian
  GI50: 3.18 µM
  TGI: 12.3 µM
BT-549 breast
  GI50: 8.08 µM
  TGI: > 100 µM
CCRF-CEM leukemia
  GI50: 0.862 µM
  TGI: > 100 µM
HL-60(TB) leukemia
  GI50: 2.44 µM
  TGI: > 100 µM
SF-539 CNS
  GI50: 3.5 µM
  TGI: 59.4 µM
UACC-62 melanoma
  GI50: 3.17 µM
  TGI: > 100 µM
M14 melanoma
  GI50: 3.65 µM
  TGI: > 100 µM
ACHN renal
  GI50: 2.86 µM
  TGI: 68.6 µM
A498 renal
  GI50: 7.03 µM
  TGI: > 100 µM
PC-3 prostate
  GI50: 4.5 µM
  TGI: > 100 µM
HCT-15 colon
  GI50: 0.838 µM
  TGI: > 100 µM
RXF 393 renal
  GI50: 18.3 µM
  TGI: > 100 µM
NCI-H460 lung
  GI50: 3.38 µM
  TGI: 20.3 µM
RPMI-8226 leukemia
  GI50: 3.45 µM
  TGI: > 100 µM
DU-145 prostate
  GI50: 6.53 µM
  TGI: > 100 µM
SN12C renal
  GI50: 4.92 µM
  TGI: > 100 µM
OVCAR-4 ovarian
  GI50: 2.42 µM
  TGI: 18.6 µM
SK-MEL-2 melanoma
  GI50: 30 µM
  TGI: > 100 µM
SK-OV-3 ovarian
  GI50: 9.69 µM
  TGI: > 100 µM
SK-MEL-28 melanoma
  GI50: 11.8 µM
  TGI: > 100 µM
SNB-19 CNS
  GI50: 5.39 µM
  TGI: > 100 µM
NCI-H522 lung
  GI50: 2.36 µM
  TGI: 9.41 µM
SNB-75 CNS
  GI50: 2.01 µM
  TGI: 20.4 µM
SF-268 CNS
  GI50: 3.09 µM
  TGI: 69.3 µM
NCI-H23 lung
  GI50: 3.36 µM
  TGI: > 100 µM
CAKI-1 renal
  GI50: 2.98 µM
  TGI: > 100 µM
MALME-3M melanoma
  GI50: 8.18 µM
  TGI: > 100 µM
MDA-MB-435
  GI50: 6.42 µM
  TGI: > 100 µM
OVCAR-3 ovarian
  GI50: 2.82 µM
  TGI: 13.8 µM
K-562 leukemia
  GI50: 3.18 µM
  TGI: > 100 µM
HOP-62 NSCLC
  GI50: 7.09 µM
  TGI: 44.7 µM
OVCAR-5 ovarian
  GI50: 8.31 µM
  TGI: > 100 µM
SK-MEL-5 melanoma
  GI50: 4.12 µM
  TGI: > 100 µM
HCT-116 colon
  GI50: 4.51 µM
  TGI: > 100 µM
OVCAR-8 ovarian
  GI50: 4.23 µM
  TGI: 59.1 µM
UACC-257 melanoma
  GI50: 3.14 µM
  TGI: 9.57 µM
HT29 colon
  GI50: 9.46 µM
  TGI: > 100 µM
HS 578T breast
  GI50: 6.87 µM
  TGI: 76.3 µM
COLO 205 colon
  GI50: 3.66 µM
  TGI: > 100 µM
SW-620 colon
  GI50: 4.64 µM
  TGI: > 100 µM
SR leukemia
  GI50: 4.35 µM
  TGI: > 100 µM
NCI-H226 lung
  GI50: 4.6 µM
  TGI: > 100 µM
A549 NSCLC
  GI50: 5.33 µM
  TGI: > 100 µM
HOP-92 NSCLC
  GI50: 4.47 µM
  TGI: 42.5 µM
MOLT-4 leukemia
  GI50: 2.6 µM
  TGI: > 100 µM
MCF7 breast
  GI50: 4.92 µM
  TGI: 91.5 µM
NCI/ADR-RES ovarian
  GI50: 1.95 µM
  TGI: > 100 µM
HCC-2998 colon
  GI50: 6.59 µM
  TGI: > 100 µM

From PubChem BioAssay (NCI)
